Measurements reported in US20170368148A1, “USES OF A PTHrP ANALOGUE IN REDUCING FRACTURE RISK” (RADIUS HEALTH, INC., priority 2015, published 2017).
Marks after values point to notes of the source that are not given here.

Assays:
[1] = system: postmenopausal women with osteoporosis; test: ACTIVE phase 3 trial: fracture rates and fracture risk reduction, 18 months; format: in vivo, human; details: abaloparatide 80 μg or teriparatide 20 μg daily SC
Description: (§1) The ACTIVE phase 3 fracture prevention trial was conducted for abaloparatide in postmenopausal women with osteoporosis who were otherwise healthy. The enrolled subjects were treated with 80 micrograms (μg) of abaloparatide, a matching placebo, or the approved daily dose of 20 μg of teriparatide for 18 months. The ACTIVE trial evaluated fracture rates, fracture risks, BMD, and bone turnover biomarkers (e.g., CTX and P1NP) in all patient groups.
Fracture risk reduction and hazard ratio (HR) were derived from Kaplan-Meier (KM) curve.
The ACTIVE pivotal Phase 3 fracture prevention trial for the PTHrP analogue abaloparatide, Study BA058-05-003 (see ClinicalTrials.gov), was a randomized, double-blind, placebo-controlled trial in postmenopausal osteoporotic women randomized to receive daily doses of one of the following for 18 months: 80 micrograms (μg) of abaloparatide; a matching placebo; or the approved daily dose of 20 μg of teriparatide. Treatment with abaloparatide at a daily dose of 80 μg or placebo remained blinded to all parties throughout the study. Teriparatide used was a proprietary prefilled drug and device combination that could not be repackaged. Therefore, its identity could not be blinded to treating physicians and patients once use began. Study medication was self-administered daily by subcutaneous injection for a maximum of 18 months. All enrolled patients also received calcium and vitamin D supplementation from the time of enrollment until the end of the treatment period. It was recommended to patients that they also continue these supplements through the one-month follow-up period.
The trial completed enrollment in March 2013 with 2,463 patients at 28 medical centers in 10 countries in the United States, Europe, Latin America, and Asia. The baseline characteristics of the selected patients are detailed in Table 3 below.
The study enrolled otherwise healthy ambulatory women aged 49 to 86 (inclusive) who had been postmenopausal for at least five years, met the study entry criteria, and had provided written informed consent. […] All patients were to be in good general health as determined by medical history, physical examination (including vital signs), and clinical laboratory testing. This study population contained a patient population reflective of the type of severe osteoporosis patients that specialists would be expected to treat in their practices.
(§2) As set forth in the ACTIVE protocol, the primary efficacy endpoint was the number of patients treated with abaloparatide with incident vertebral fractures at the end of treatment as compared to those who received placebo. The pre-specified secondary efficacy parameters included, among other endpoints, reduction in the incidence/risk of non-vertebral fractures; changes in BMD of the spine, hip, and femoral neck from baseline to end of treatment as assessed by DXA and as compared to teriparatide; and the number of hypercalcemic events in abaloparatide treated patients when compared to teriparatide at end of treatment.

[2] = system: postmenopausal women with osteoporosis; test: ACTIVE trial: BMD by DXA; format: in vivo, human; details: for Mean percent change in BMD from baseline (ANCOVA), Femoral Neck / Mean percent change in BMD from baseline (ANCOVA), Lumbar Spine / Mean percent change in BMD from baseline (ANCOVA), Total Hip / Mean percent change in BMD from baseline (MMRM), Femoral Neck / Mean percent change in BMD from baseline (MMRM), Lumbar Spine / Mean percent change in BMD from baseline (MMRM), Total Hip: abaloparatide 80 μg or teriparatide 20 μg daily
Description: (§3) BMD and bone turnover biomarkers (CTX and P1NP) were also evaluated in all patient groups to compare the effects of abaloparatide versus teriparatide.
as §2
Comparative analyses of abaloparatide versus teriparatide were completed on the following BMD secondary endpoints using a Mixed-Effect Model for Repeated Measures (MMRM) method, shown in Table 4 below:
Comparative analyses of the PTHrP analogues abaloparatide and teriparatide were completed on the following BMD secondary endpoints using an ANCOVA approach, shown in Table 5 below: […]

[3] = system: postmenopausal women with osteoporosis; test: Phase 2 24-week dose-finding trial (48-week extension): BMD by DXA; format: in vivo, human
From the text: Healthy postmenopausal women between the ages of 55 to 85 (based on a 5-year history of amenorrhea and an elevated serum level of FSH) were enrolled in the study if they met one of the following the following definitions of osteoporosis:
Dual X-ray absorptiometry: DXA scans were obtained at each local site and then sent to a central imaging reader (BioClinica Inc. Newton, PA) where they underwent a quality control review and then analyzed according to each manufacturers guidelines. Scans performed during the treatment period on the same instrument used for the baseline scan were acquired. Each study site performed Instrument Quality Control over time (instrument standardization and phantom calibration) that was reviewed by the central reader.
BMD was re-measured at the 48-week visit.

[4] = system: postmenopausal women with osteoporosis; test: ACTIVE trial: bone turnover markers (CTX, P1NP); format: in vivo, human; details: at 18 months
Description: as §1, §3

[5] = system: postmenopausal women with osteoporosis; test: ACTIVE trial: adverse events; details: 18 months; abaloparatide 80 μg (n = 822), teriparatide 20 μg (n = 818)
Description: Safety evaluations performed in the ACTIVE trial included physical examinations, vital signs, 12-lead electrocardiograms, or ECGs, clinical laboratory tests and monitoring, and recording of adverse events. Specific safety assessments included pre-dose and post-dose (four hours) determination of serum calcium, determination of creatinine clearance, post-dose ECG assessments at selected visits, and assessments of postural hypotension (60 minutes post-dose) at selected clinic visits.
The ACTIVE trial also evaluated several potential safety measures, including blood calcium levels, orthostatic hypotension, nausea, dizziness, and injection-site reactions.

[6] = system: postmenopausal women with osteoporosis; test: Phase 2 trial: safety, serum calcium, antibody formation; details: 20 μg daily SC
Description: All subjects received supplemental calcium (500-1000 mg) and vitamin D (400-800 IU) per local practice. […] Blood calcium levels were assessed 4-hours and 24-hours after drug administration. Subjects were monitored for adverse events (AEs) and local tolerance at the injection site at each visit. Clinical and laboratory safety parameters, electrocardiograms, were also measured at each study visit.
Efficacy and safety were assessed using all randomized patients who received at least one dose of study drug. Baseline characteristics and safety parameters were summarized using descriptive statistics. […] All hypotheses were tested at the 2-sided 5% significance level.

[7] = 24 weeks, abaloparatide 80 μg, teriparatide 20 μg, valid-completers
[8] = 48 weeks (extension), 20 μg daily SC

CC[C@H](C)[C@H](NC(=O)[C@H](CCC(=O)O)NC(=O)[C@H](CO)NC(=O)[C@@H](NC(=O)[C@@H](N)CO)C(C)C)C(=O)N[C@@H](CCC(N)=O)C(=O)N[C@@H](CC(C)C)C(=O)N[C@@H](CCSC)C(=O)N[C@@H](Cc1cnc[nH]1)C(=O)N[C@@H](CC(N)=O)C(=O)N[C@@H](CC(C)C)C(=O)NCC(=O)N[C@@H](CCCCN)C(=O)N[C@@H](Cc1cnc[nH]1)C(=O)N[C@@H](CC(C)C)C(=O)N[C@@H](CC(N)=O)C(=O)N[C@@H](CO)C(=O)N[C@@H](CCSC)C(=O)N[C@@H](CCC(=O)O)C(=O)N[C@@H](CCCN=C(N)N)C(=O)N[C@H](C(=O)N[C@@H](CCC(=O)O)C(=O)N[C@@H](Cc1c[nH]c2ccccc12)C(=O)N[C@@H](CC(C)C)C(=O)N[C@@H](CCCN=C(N)N)C(=O)N[C@@H](CCCCN)C(=O)N[C@@H](CCCCN)C(=O)N[C@@H](CC(C)C)C(=O)N[C@@H](CCC(N)=O)C(=O)N[C@@H](CC(=O)O)C(=O)N[C@H](C(=O)N[C@@H](Cc1cnc[nH]1)C(=O)N[C@@H](CC(N)=O)C(=O)N[C@@H](Cc1ccccc1)C(=O)O)C(C)C)C(C)C [teriparatide, hPTH(1-34)]
Fracture Rate, incident clinical fractures [1]: 4.3%
Fracture Rate, incident non-vertebral fractures [1]: 2.9%
Fracture Rate, major osteoporotic fractures [1]: 2.8%
Fracture Rate, wrist [1]: 2.1%
Fracture Risk Reduction v. PBO, incident clinical fractures [1]: 29%
Fracture Risk Reduction v. PBO, incident non-vertebral fractures [1]: 28%
Fracture Risk Reduction v. PBO, major osteoporotic fractures [1]: 33%
Fracture Risk Reduction v. PBO, wrist [1]: −13%
Fracture rate, new vertebral fractures (excluding worsening) [1]: 0.84%
Reduction of new vertebral fractures (excluding worsening) as compared to placebo [1]: 80%
Fracture Risk Reduction v. PBO, incident clinical fractures ([1]; listed as TPTD): 29%
Fracture Risk Reduction v. PBO, incident non-vertebral fractures ([1]; listed as TPTD): 28%
Fracture Risk Reduction v. PBO, major osteoporotic fractures ([1]; listed as TPTD): 33%
Fracture Risk Reduction v. PBO, incident non-vertebral fractures ([1]; listed as Teriparatide): 28%
Mean percent change in BMD from baseline (ANCOVA), Femoral Neck ([2]; 6 mo): 0.80%*
Mean percent change in BMD from baseline (ANCOVA), Lumbar Spine ([2]; 6 mo): 4.84%*
Mean percent change in BMD from baseline (ANCOVA), Total Hip ([2]; 6 mo): 1.33%*
Mean percent change in BMD from baseline (MMRM), Femoral Neck ([2]; 6 mo): 0.87%*
Mean percent change in BMD from baseline (MMRM), Lumbar Spine ([2]; 6 mo): 5.25%*
Mean percent change in BMD from baseline (MMRM), Total Hip ([2]; 6 mo): 1.44%*
Mean percent change in BMD from baseline (ANCOVA), Femoral Neck ([2]; 12 mo): 1.41%*
Mean percent change in BMD from baseline (ANCOVA), Lumbar Spine ([2]; 12 mo): 7.40%*
Mean percent change in BMD from baseline (ANCOVA), Total Hip ([2]; 12 mo): 2.03%*
Mean percent change in BMD from baseline (MMRM), Femoral Neck ([2]; 12 mo): 1.54%*
Mean percent change in BMD from baseline (MMRM), Lumbar Spine ([2]; 12 mo): 8.28%*
Mean percent change in BMD from baseline (MMRM), Total Hip ([2]; 12 mo): 2.29%*
Subjects with increased BMD of >3% at all three sites (lumbar spine, total hip, femoral neck) ([2]; 12 months): 19.8%
Mean percent change in BMD from baseline (ANCOVA), Femoral Neck ([2]; 18 mo): 2.26%*
Mean percent change in BMD from baseline (ANCOVA), Lumbar Spine ([2]; 18 mo): 9.12%*
Mean percent change in BMD from baseline (ANCOVA), Total Hip ([2]; 18 mo): 2.81%*
Mean percent change in BMD from baseline (MMRM), Femoral Neck ([2]; 18 mo): 2.66%*
Mean percent change in BMD from baseline (MMRM), Lumbar Spine ([2]; 18 mo): 10.49%*
Mean percent change in BMD from baseline (MMRM), Total Hip ([2]; 18 mo): 3.26%*
Subjects with increased BMD of >3% at all three sites (lumbar spine, total hip, femoral neck) ([2]; 18 months): 32.0%
Subjects with increased BMD of >3% at all three sites (lumbar spine, total hip, femoral neck) ([2]; month 6): 6.5%
Femoral neck BMD increase ([3]; 24 weeks, 20 μg daily SC): 1.1±4.6%
Lumbar spine BMD increase (±SD) ([3]; 24 weeks, 20 μg daily SC): 5.5±4.1%
Total hip BMD increase ([3]; 24 weeks, 20 μg daily SC): 0.5±3.9%
Percentage of subjects with a >3% BMD gain at the lumbar spine [3, 7]: 70%
Percentage of subjects with a >3% total hip BMD gain [3, 7]: 16%
Femoral neck BMD increase [3, 8]: 2.2%
Lumbar spine BMD increase [3, 8]: 8.6%
Total hip BMD increase [3, 8]: 1.3%
CTX level compared to placebo [4]: elevated levels compared to placebo
AE: Arthralgia [5]: 8.6%
AE: Back pain [5]: 7.2%^‡
AE: Constipation [5]: 4.2%
AE: Dizziness [5]: 7.3%
AE: Headache [5]: 6.2%
AE: Hypercalcemia (serum albumin-corrected calcium value ≧10.7 mg/dL) [5]: 6.37%^†
AE: Hypercalciuria [5]: 12.5%^‡
AE: Hypertension [5]: 5.0%
AE: Influenza [5]: 4.2%
AE: Nasopharyngitis [5]: 6.5%
AE: Nausea [5]: 5.1%^‡
AE: Pain in extremity [5]: 5.1%
AE: Palpitations [5]: 1.6%^‡
AE: Upper respiratory tract infection [5]: 8.9%
AE: Urinary tract infection [5]: 5.0%
Highest serum calcium value obtained by any subject ([6]; 4-hours post-dose): 12.6 mg/dL
Patients with serum calcium levels ≧10.5 mg/dL ([6]; 4-hours post-dose): 40%
Patients with serum calcium levels ≧10.5 mg/dL ([6]; 24-hours after the last injection): 16%
Highest serum calcium value obtained by any patient ([6]; 24-hours post-dose): 11.2 mg/dL
Dizziness ([6]; 24 weeks): 4%
Incidence of headache ([6]; 24 weeks): 13%
Patients discontinued due to AEs ([6]; 24 weeks): 4%
Proportion of patients that experienced TEAEs ([6]; 24 weeks): 78%
TEAEs possibly or probably related to study treatment ([6]; 24 weeks): 29%
Treatment-related TEAEs ([6]; extension to 48 weeks): 21%
